Reference: US6541484B2 (dated 2003)
Where a name gives a salt, the structure may show the parent alone.

Row | melting point [°C] | SMILES
1 | 147 to 148 | CCn1ncnc1COc1nc2c(cnn2-c2ccccc2)c2ccccc12
2 | 149 to 151 | Cn1ncnc1COc1nc2c(cnn2-c2ccccc2)c2ccccc12

Continued, compound first:

Row | SMILES | melting point [°C]
3 | Cn1ncnc1COc1cc(N)c2cnn(-c3ccccc3)c2n1 | 164 to 166
4 | CCn1ncnc1COc1nc2c(cnn2-c2ccccc2)cc1C(C)(C)C (as salt: hydrochloride) | 150 to 152
5 | Cn1ncnc1COc1nc2c(cnn2-c2ccccc2)cc1C(C)(C)C | 143 to 145
